We go through one substance from patent US6191113A, “Peptide for inhibiting growth of smooth muscle cells” (Juridical Foundation The Chemo-Sero-Therapeutic Research …, priority 1995, dated 2001).

Data set [1] concerns Vascular smooth muscle cells from human aorta. Briefly: Growth inhibition of smooth muscle cells by full-length TFPI or TFPI lacking the C-terminal region (cell count, DME). To be noted: 50 μg/ml in DME, counted nine days after plating, 3 wells, Student's t-test. It is filed as cell-based. As to the method: Vascular smooth muscle cells from human aorta (purchased from Kurabo K.K.) were used and subjected to passage culture with Dulbecco modified Eagle medium (hereinafter referred to as "DME") supplemented with 10% fetal calf serum. The smooth muscle cells with six passages were used in the following experiment.
The smooth muscle cells suspended in DME were plated on a 48 well culture plate (manufactured by Iwaki Glass K.K.) at a cell density of 5,000 cells/well and incubated in CO2 incubator at 37° C. Two days after plating, the culture medium was exchanged with DME containing 50 μg/ml of full-length TFPI or 50 μg/ml of TFPI lacking the C-terminal region or with DME alone as a control and culture was continued in CO2 incubator at 37° C. while the culture medium was exchanged with a fresh medium on every 2 days. The culture medium was used at 0.3 ml/well. Nine days after plating, the cells attached to the plate were detached by treatment with a trypsin/EDTA solution and then a cell number per well was counted with a hemocytometer. FIG. 1 is a graph showing a mean cell number as well as a standard deviation for three wells in each group.

A further data set concerns smooth muscle cells. As to the kind of experiment: Cellular toxicity with Cytotox 96 kit. The class given is cell-based, human. To be noted: Cytotox 96 kit (Promega).

On to “full-length TFPI: intact human tissue factor pathway inhibitor purified from culture supernatant of Chinese hamster ovary cell line”, for which, in data set [1], the “activity to inhibit growth of smooth muscle cells (cell number per well vs control)” value is on record as “significantly decreased cell number”. In the data set on smooth muscle cells, the cellular toxicity entry is listed as “did not exhibit cellular toxicity”.
